The record followed here is ChEMBL document CHEMBL4840350 (J Med Chem, 2021).

The nature of series [1]: Apparent permeability of compound in human Caco2 cells at 10 uM incubated for 120 mins by LC-MS/MS analysis. In kind it is ADME, cell-based. To be noted: Caco-2.
The nature of series [2]: Dose normalized AUC (0 to 8 hrs) in CD-1 mouse at 3 mg/kg, po administered as single dose measured over 24 hrs by LC-MS/MS analysis. In kind it is ADME, organism-based. To be noted: in vivo.
Series [3] is described as follows: AUC(0 to 8 hrs) in CD-1 mouse at 60 mg/kg, po administered as repeated dose measured at day 4 by LC-MS/MS analysis. The following applies: in vivo. In kind it is ADME, organism-based. Also noted: route oral, time 4 day, dose 60 mg/kg.
A short description of series [4]: Cmax in CD-1 mouse at 60 mg/kg, po administered as repeated dose measured at day 4 by LC-MS/MS analysis. The following applies: in vivo. Set-up: route oral, dose 60 mg/kg, time 4 day. The format is ADME, organism-based.
A short description of series [5]: Cmax in CD-1 mouse at 60 mg/kg, po administered as repeated dose measured at day 1 by LC-MS/MS analysis. In kind it is ADME, organism-based. Set-up: route oral, time 1 day, dose 60 mg/kg. To be noted: in vivo.
Series [6] is described as follows: Drug uptake in po dosed CD-1 mouse xenografted with human HL-60 cells administered twice daily for 4 weeks and measured 1 to 8 hrs after post last dose. The following applies: in vivo, 672 h. The format is ADME, organism-based.
Series [7] is described as follows: Elimination half-life in CD-1 mouse at 60 mg/kg, po administered as repeated dose measured at day 4 by LC-MS/MS analysis. The following applies: in vivo, time 4 day, read-out: beta t1/2 (converted). The format is ADME, organism-based.
A short description of series [8]: Dose normalized AUC (0 to 8 hrs) in CD-1 mouse at 60 mg/kg, po administered as repeated dose measured at day 4 by LC-MS/MS analysis. In kind it is ADME, organism-based. To be noted: in vivo, 96 h, time 4 day.
Series [9] can be described thus: Dose normalized Cmax in CD-1 mouse at 60 mg/kg, po administered as repeated dose measured at day 1 by LC-MS/MS analysis. In kind it is ADME, organism-based. The following applies: in vivo, 24 h, time 1 day.
Series [10] in a line: Dose normalized Cmax in CD-1 mouse at 60 mg/kg, po administered as repeated dose measured at day 4 by LC-MS/MS analysis. The following applies: in vivo, 96 h, time 4 day. The format is ADME, organism-based.
Series [11] can be described thus: Dose normalized AUC (0 to 8 hrs) in CD-1 mouse at 60 mg/kg, po administered as repeated dose measured at day 1 by LC-MS/MS analysis. The format is ADME, organism-based. To be noted: in vivo, 24 h, time 1 day.
Series [12] is described as follows: Dose normalized Cmax in CD-1 mouse at 3 mg/kg, po administered as single dose measured over 24 hrs by LC-MS/MS analysis. The format is ADME, organism-based. To be noted: in vivo.
Series [13] is described as follows: Observed clearance in CD-1 mouse at 3 mg/kg, po administered as single dose measured over 24 hrs by LC-MS/MS analysis. In kind it is ADME, organism-based. The following applies: in vivo.
The nature of series [14]: AUC(0 to 8 hrs) in CD-1 mouse at 3 mg/kg, po administered as single dose measured over 24 hrs by LC-MS/MS analysis. In kind it is ADME, organism-based. The following applies: in vivo. Set-up: route oral, time 24 hrs, dose 3 mg/kg.
A short description of series [15]: AUC(0 to 8 hrs) in CD-1 mouse at 60 mg/kg, po administered as repeated dose measured at day 1 by LC-MS/MS analysis. The format is ADME, organism-based. Also noted: route oral, dose 60 mg/kg, time 1 day. To be noted: in vivo.
Series [16] is described as follows: Stability in mouse liver S9 fraction assessed as extraction ratio at 3 uM measured upto 45 mins in presence of NADPH and UDPGA by LC-MS/MS analysis. The format is ADME, subcellular.
Series [17] can be described thus: Stability in mouse liver S9 fraction assessed as half life at 3 uM measured upto 45 mins in presence of NADPH and UDPGA by LC-MS/MS analysis. In kind it is ADME, subcellular.

On to `Cc1cc(F)ccc1-c1cc2c(cn1)ncn2-c1ccc(OC(F)F)cc1`, for which, in [1], the Papp at 2 h, 10 µM came to 14 ×10⁻⁶ cm/s. The AUC/dose worked out at 121 ng·h/mL per mg/kg in series [2], 154 ng·h/mL per mg/kg in series [8] and 164 ng·h/mL per mg/kg in series [11]. Besides, the AUC at 96 h in series [3] was 9220 ng·h/mL. In addition, the Cmax in [4] came out at 2680 ng/mL; in series [5], 2210 ng/mL. The Drug uptake entry in [6] is given as “Dose-Dependent Effect”. The half-life in series [7] is 8.1 h. The Cmax/dose in series [9] came to 37 ng/mL; in series [10] it was 45 ng/mL; in series [12] it was 43 ng/mL. The CL/F in series [13] amounted to 129 mL/min/kg. Besides, the AUC(0-t) at 24 h was determined as 363 ng·h/mL in series [14] and 9860 ng·h/mL in [15].

As for `Cc1cc(C#N)ccc1-c1cc2c(cn1)ncn2-c1ccc(OC(F)F)cc1`, the ERH in [16] was 0.02.

For the compound `Cc1cc(F)ccc1-c1cc2c(cn1)ncn2-c1ccc(OC(F)F)nc1`, in series [16], the ERH was found to be 0.09.

On to `COc1ccc(Cn2cnc3cnc(Nc4cccc(NC(C)=O)c4)cc32)cc1OC`, for which the half-life at […], 3 µM in series [17] is 0.7 h.

What is called Papp is the rate of passage across a membrane or cell layer, normalised by area and donor concentration. Usually AUC stands for concentration integrated over time. Read a high AUC as more exposure. What is called Cmax is the peak of the concentration-time curve. By CL/F is commonly meant clearance divided by bioavailability, as obtained after extravascular dosing. In general, AUC(0-t) refers to the area under the concentration-time curve up to a stated or last time point. Read a low AUC(0-t) as less exposure.
